Laboratory results: patent US9783838B2, “PmST3 enzyme for chemoenzymatic synthesis of alpha-2-3-sialosides” (The Regents of the University of California, priority 2012, dated 2017)
Read-outs that look alike come from different tables or passages of the source.

Assays:
PmST2 [1] = settings: up to 20 mM; cited from earlier work
PmST3Δ35-His6 [2] = target: T1, PmST3Δ35-His6 (Pasteurella multocida, UniProt Q9CLP3); format: biochemical
Method: For metal effects, various concentrations (1, 5, 10, or 20 mM) of MgCl2 or MnCl2 were used. Ethylenediaminetetraacetic acid (EDTA) as a chelating agent was used at two concentrations (1 or 10 mM). A reducing reagent dithiothreitol (DTT) was used at two concentrations (1 or 10 mM). Reaction without metal ions, EDTA, or DTT was used as a control. The reaction was quenched by adding 490 μl of pre-chilled acetonitrile:water (20:80). Samples were kept on ice until being analyzed by HPLC equipped with a fluorescent detector (315 nm excitation and 400 nm emission).

PmST1 [3] = target: T2, PmST1 (Pasteurella multocida, UniProt Q15KI8); settings: cited from earlier work
PmST3Δ35-His6 [4] = target: T1, PmST3Δ35-His6; assay: Acceptor substrate specificity of PmST3Δ35-His6; format: biochemical; settings: acceptor 2 mM, CMP-Neu5Ac 2 mM, 37° C., pH 7.5
Method: All reactions were carried out in duplicate at 37° C. in Tris-HCl (200 mM, pH 7.5) containing an acceptor substrate (2 mM), CMP-Neu5Ac (2 mM), and PmST3Δ35-His6 (0.25 μg μl^−1). At 10 min or 4 hr, aliquots of reaction mixture were withdrawn and added to pre-chilled acetonitrile:water (20:80) (for reactions with acceptors containing 2-aminobenzoic acid (2AA) or 4-methylumbelliferone (MU) aglycone) or pre-chilled 95% ethanol (for reactions with acceptor containing Pro-triazole-C14 or pNP aglycone) and samples were kept on ice until being analyzed. Samples with acceptors containing 2AA (315 nm excitation and 400 nm emission) or MU (326 nm excitation and 372 nm emission) were analyzed by HPLC equipped with a fluorescent detector. Samples with acceptor containing Pro-triazole-C14 (214 nm) or pNP (300 nm) aglycone were centrifuged at 13,000 rpm for 5 min and analyzed by capillary electrophoresis (CE) equipped with a photodiode array (PDA) detector as described previously using sodium borate buffer (50 mM, pH 10.2) containing β-cyclcodextrin (20 mM) as a running buffer (Glycobiology, 21:1206-1216).

[5] = system: CC(=O)N[C@H]1[C@H]([C@H](O)[C@H](O)CO)O[C@](OP(=O)(O)OC[C@H]2O[C@@H](n3ccc(N)nc3=O)[C@H](O)[C@@H]2O)(C(=O)O)C[C@@H]1O; assay: purified protein, by the assay type; settings: other: apparent, 37° C., Tris-HCl pH 7.5, other substrate fixed at 1 mM
Method: Reactions were carried out in duplicate at 37° C. for 7 min in a total volume of 10 μl in a Tris-HCl buffer (200 mM, pH 7.5).

PmST1 [6] = target: T2, PmST1; settings: cited from earlier work; remark: listed apart in the source
CstI = settings: truncated monofunctional α2-3-sialyltransferase CstI; cited from earlier work
PmST2 [7] = settings: cited from earlier work
[8] = Storage stability of purified truncated PmST3 proteins; format: physicochemical
Method: To further improve the expression of the soluble and active protein, three C-terminal truncated versions of PmST3 (PmST3Δ20-His6, PmST3Δ35-His6, and PmST3Δ45-His6 with the removal of C-terminal 20, 35, and 45 amino acid residues) were cloned into pET22b(+) vector as C-His6 (SEQ ID NO:37) tagged fusion proteins. […] For PmST3Δ45-His6, the expression of soluble protein was improved to the level of MBP fusion protein (4 mg of purified protein from 1 liter of cell culture by Ni^2+-NTA affinity chromatography). However, PmST3Δ45-His6 seemed to have stability issues. […] Under the same expression conditions, purified PmST3Δ35-His6 can be routinely obtained at a level of 29 mg from cell lysate from one liter of cell culture.

[9] = Comparison of three Pasteurella multocida sialyltransferases (activities and acceptor use); format: biochemical
[10] = pH profile of α2-3-sialyltransferase activity; format: biochemical
Method: pH profile of PmST3Δ35-His6. Reactions were carried out in duplicate at 37° C. for 10 min. […] Buffers used were: MES-KOH (pH 4.0-6.5), Tris-HCl (pH 7.0-9.0), and CHES (pH 10.0). Enzymatic reaction was quenched by adding 490 μl of pre-chilled acetonitrile:water (20:80) mixture. The samples were kept on ice until being analyzed by a Shimadzu LC-2010A HPLC system equipped with a membrane on-line degasser, a temperature control unit, and a fluorescence detector (the excitation wavelength was set at 315 nm and the emission wavelength was set at 400 nm) using a reverse phase Premier C18 column (250×4.6 mm I.D., 5 μm particle size, Shimadzu) protected with a C18 guard column cartridge. Mobile phase used was 20% acetonitrile in water.

Molecule: [Cl][Mn][Cl] [MnCl2]
- effect on enzyme activity (PmST2 [1]): did not affect
- effect on enzyme activity (PmST3Δ35-His6 [2]; MnCl2 or MgCl2 up to 20 mM): did not affect
- effect on α2-3-sialyltransferase activity (PmST1 [3]; 5 mM or 10 mM): decreased
- effect on α2-3-sialyltransferase activity (PmST1 [3]; 20 mM): almost abolished

Molecule: O=[N+]([O-])c1ccc(O[C@@H]2O[C@H](CO)[C@H](O)[C@H](O)[C@H]2O)cc1 [GalβpNP, p-nitrophenyl β-galactoside]
- % Conv. (10 min) (PmST3Δ35-His6 [4]): <1%
- % Conv. (4 h) (PmST3Δ35-His6 [4]): 9.4 ± 0.4%

Molecule: O=C(O)CN(CCN(CC(=O)O)CC(=O)O)CC(=O)O [EDTA, Ethylenediaminetetraacetic acid]
- effect on enzyme activity (PmST3Δ35-His6 [2]; EDTA up to 10 mM): did not affect

Molecule: PmST3Δ35-His6 (Pasteurella multocida subsp. multocida str. Pm70)
- Km [5]: 260 ± 10 µM
- Vmax [5]: 44 µM/min
- kcat [5]: 0.122 ± 0.00167 s⁻¹
- kcat/Km [5]: 467 M⁻¹ s⁻¹

Molecule: CC(=O)N[C@H]1[C@H]([C@H](O)[C@H](O)CO)O[C@](OP(=O)(O)OC[C@H]2O[C@@H](n3ccc(N)nc3=O)[C@H](O)[C@@H]2O)(C(=O)O)C[C@@H]1O [CMP-Neu5Ac, Cytidine 5′-monophosphate N-acetylneuraminic acid]
- Km (PmST1 [6]): 440 µM
- Km (CstI): 400 µM
- Km (PmST2 [7]): 1300 ± 100 µM

Molecule: O[C@H](CS)[C@H](O)CS (racemic) [DTT, dithiothreitol]
- effect on enzyme activity (PmST3Δ35-His6 [2]; DTT 1 or 10 mM): Change of activity was not observed

Molecule: Cc1cc(=O)oc2cc(O[C@@H]3O[C@H](CO)[C@@H](O[C@@H]4O[C@H](CO)[C@H](O)[C@H](O)[C@H]4O)[C@H](O)[C@H]3O)ccc12 [LacβMU, 4-methylumbelliferyl β-lactoside]
- % Conv. (10 min) (PmST3Δ35-His6 [4]): 29.9 ± 1.2%
- % Conv. (4 h) (PmST3Δ35-His6 [4]): 65.6 ± 1.6%

Molecule: [Cl-].[Cl-].[Mg+2] [MgCl2]
- effect on enzyme activity (PmST2 [1]): did not affect
- effect on enzyme activity (PmST3Δ35-His6 [2]; MnCl2 or MgCl2 up to 20 mM): did not affect

B1: PmST3Δ45-His6: C-terminal 45 residue truncated, C-His6 tagged PmST3, SEQ ID NO: 12 (protein)
chain: MDKFAEHEIPKAVIVAGNGESLSQIDYRLLPKNYDVFRCNQFYFEERYFLGNKIKAVFFTPGVFLEQYYTLYHLKRNNEYFVDNVILSSFNHPTVDLEKSQKIQALFIDVINGYEKYLSKLTAFDVYLRYKELYENQRITSGVYMCAVAIAMGYTDIYLTGIDFYQASEENYAFDNKKPNIIRLLPDFRKEKTLFSYHSKDIDLEALSFLQQHYHVNFYSISPMSPLSKHFPIPTVEDDCETTFVAPLKENYINDILLVDKLAAALEHHHHHH
modifications: synthetic C-terminal truncated Pasteurella multocida sialyltransferase 3 (PmST3, Pm1174) C-His-6 tagged fusion protein PmST3delta45-His-6
- storage stability (precipitation) ([8]; after 3 days of storage at 4° C. after dialysis against 10% glycerol and 25 mM Tris-HCl, pH 7.5): Precipitation was observed

B2: PmST3Δ35-His6: C-terminal 35 residue truncated, C-His6 tagged PmST3 α2-3-sialyltransferase, SEQ ID NO: 11 (protein)
chain: MDKFAEHEIPKAVIVAGNGESLSQIDYRLLPKNYDVFRCNQFYFEERYFLGNKIKAVFFTPGVFLEQYYTLYHLKRNNEYFVDNVILSSFNHPTVDLEKSQKIQALFIDVINGYEKYLSKLTAFDVYLRYKELYENQRITSGVYMCAVAIAMGYTDIYLTGIDFYQASEENYAFDNKKPNIIRLLPDFRKEKTLFSYHSKDIDLEALSFLQQHYHVNFYSISPMSPLSKHFPIPTVEDDCETTFVAPLKENYINDILLPPHFVYEKLGVDKLAAALEHHHHHH
modifications: synthetic C-terminal truncated Pasteurella multocida sialyltransferase 3 (PmST3, Pm1174) C-His-6 tagged fusion protein PmST3delta35-His-6
- storage stability (activity) ([8]; after 3 months of storage in 10% glycerol and 25 mM Tris-HCl (pH 7.5) buffer): remained active
- Use galactosyl glycolipids as acceptors [9]: Yes
- Use galactosyl oligosaccharides as acceptors [9]: Yes
- α2-3-sialidase activity [9]: No
- α2-3-sialyltransferase activity [9]: Yes
- α2-3-trans-sialidase activity [9]: No
- α2-6-sialyltransferase activity [9]: No
- optimal pH range for α2-3-sialyltransferase activity ([10]; LacβPro2AA as acceptor): 6.5-9.0
- activity outside the optimal pH range ([10]; pH below 6.0 or 10.0): decreased dramatically
